In PubChem BioAssay (NCI):
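Five concentrations, 48 hours, 96-well plates. GI50: concentration for 50% inhibition of growth. TGI denotes the concentration required for complete inhibition of growth.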

Assays:
Experiment in all cases: DTP human tumour cell line panel, 48 h
786-0 renal = test system: 786-0 renal
A498 renal = test system: A498 renal
A549 NSCLC = test system: A549 NSCLC
ACHN renal = test system: ACHN renal
BT-549 breast = test system: BT-549 breast
CAKI-1 renal = test system: CAKI-1 renal
CCRF-CEM leukemia = test system: CCRF-CEM leukemia
COLO 205 colon = test system: COLO 205 colon
DU-145 prostate = test system: DU-145 prostate
EKVX NSCLC = test system: EKVX NSCLC
HCC-2998 colon = test system: HCC-2998 colon
HCT-116 colon = test system: HCT-116 colon
HCT-15 colon = test system: HCT-15 colon
HL-60(TB) leukemia = test system: HL-60(TB) leukemia
HOP-62 NSCLC = test system: HOP-62 NSCLC
HOP-92 NSCLC = test system: HOP-92 NSCLC
HT29 colon = test system: HT29 colon
IGROV1 ovarian = test system: IGROV1 ovarian
K-562 leukemia = test system: K-562 leukemia
KM12 colon = test system: KM12 colon
LOX IMVI melanoma = test system: LOX IMVI melanoma
M14 melanoma = test system: M14 melanoma
MALME-3M melanoma = test system: MALME-3M melanoma
MCF7 breast = test system: MCF7 breast
MDA-MB-231 breast = test system: MDA-MB-231 breast
MDA-MB-435 = test system: MDA-MB-435
MOLT-4 leukemia = test system: MOLT-4 leukemia
NCI-H226 lung = test system: NCI-H226 lung

N#Cc1c(-c2ccc(Cl)cc2)n(O)c2ccccc12
GI50 (786-0 renal): 2.24 µM
TGI (786-0 renal): 7.04 µM
GI50 (A498 renal): 1.38 µM
TGI (A498 renal): 4.09 µM
GI50 (A549 NSCLC): 2.6 µM
TGI (A549 NSCLC): 11.9 µM
GI50 (ACHN renal): 3.68 µM
TGI (ACHN renal): 91.2 µM
GI50 (BT-549 breast): 1.16 µM
TGI (BT-549 breast): 7.97 µM
GI50 (CAKI-1 renal): 1.95 µM
TGI (CAKI-1 renal): 5.2 µM
GI50 (CCRF-CEM leukemia): 3.37 µM
TGI (CCRF-CEM leukemia): 23.2 µM
GI50 (COLO 205 colon): 13.4 µM
TGI (COLO 205 colon): 30.7 µM
GI50 (DU-145 prostate): 3.75 µM
TGI (DU-145 prostate): > 100 µM
GI50 (EKVX NSCLC): 3.11 µM
TGI (EKVX NSCLC): 15.7 µM
GI50 (HCC-2998 colon): 3 µM
TGI (HCC-2998 colon): 8.01 µM
GI50 (HCT-116 colon): 2.29 µM
TGI (HCT-116 colon): 8.69 µM
GI50 (HCT-15 colon): 1.8 µM
TGI (HCT-15 colon): 18.9 µM
GI50 (HL-60(TB) leukemia): 1.76 µM
TGI (HL-60(TB) leukemia): 5.69 µM
GI50 (HOP-62 NSCLC): 2.23 µM
TGI (HOP-62 NSCLC): 7.9 µM
GI50 (HOP-92 NSCLC): 1.02 µM
TGI (HOP-92 NSCLC): 3.5 µM
GI50 (HT29 colon): 4.84 µM
TGI (HT29 colon): 20.9 µM
GI50 (IGROV1 ovarian): 3.15 µM
TGI (IGROV1 ovarian): 8.52 µM
GI50 (K-562 leukemia): 0.949 µM
TGI (K-562 leukemia): > 100 µM
GI50 (KM12 colon): 2.17 µM
TGI (KM12 colon): 11.7 µM
GI50 (LOX IMVI melanoma): 2.24 µM
TGI (LOX IMVI melanoma): 13.4 µM
GI50 (M14 melanoma): 0.803 µM
TGI (M14 melanoma): 7.36 µM
GI50 (MALME-3M melanoma): 1.88 µM
TGI (MALME-3M melanoma): 9.02 µM
GI50 (MCF7 breast): 2.67 µM
TGI (MCF7 breast): > 100 µM
GI50 (MDA-MB-231 breast): 1.51 µM
TGI (MDA-MB-231 breast): 4.38 µM
GI50 (MDA-MB-435): 0.29 µM
TGI (MDA-MB-435): 1.26 µM
GI50 (MOLT-4 leukemia): 3.61 µM
TGI (MOLT-4 leukemia): 15.5 µM
GI50 (NCI-H226 lung): 2.83 µM
TGI (NCI-H226 lung): 12 µM
